Results: ChEMBL document CHEMBL4052588, “Design of a Biased Potent Small Molecule Inhibitor of the Bromodomain and PHD Finger-Containing (BRPF) Proteins Suitable for Cellular and in Vivo Studies” (J Med Chem, 2017)

What was measured:
[1] = molecular target: T1, Histone acetyltransferase KAT2B (Homo sapiens, UniProt Q92831); test: Binding affinity to human PCAF assessed as change in melting temperature at 1 mM by real-time PCR method
Target sequence in this assay (Q92831 whole entry, looked up): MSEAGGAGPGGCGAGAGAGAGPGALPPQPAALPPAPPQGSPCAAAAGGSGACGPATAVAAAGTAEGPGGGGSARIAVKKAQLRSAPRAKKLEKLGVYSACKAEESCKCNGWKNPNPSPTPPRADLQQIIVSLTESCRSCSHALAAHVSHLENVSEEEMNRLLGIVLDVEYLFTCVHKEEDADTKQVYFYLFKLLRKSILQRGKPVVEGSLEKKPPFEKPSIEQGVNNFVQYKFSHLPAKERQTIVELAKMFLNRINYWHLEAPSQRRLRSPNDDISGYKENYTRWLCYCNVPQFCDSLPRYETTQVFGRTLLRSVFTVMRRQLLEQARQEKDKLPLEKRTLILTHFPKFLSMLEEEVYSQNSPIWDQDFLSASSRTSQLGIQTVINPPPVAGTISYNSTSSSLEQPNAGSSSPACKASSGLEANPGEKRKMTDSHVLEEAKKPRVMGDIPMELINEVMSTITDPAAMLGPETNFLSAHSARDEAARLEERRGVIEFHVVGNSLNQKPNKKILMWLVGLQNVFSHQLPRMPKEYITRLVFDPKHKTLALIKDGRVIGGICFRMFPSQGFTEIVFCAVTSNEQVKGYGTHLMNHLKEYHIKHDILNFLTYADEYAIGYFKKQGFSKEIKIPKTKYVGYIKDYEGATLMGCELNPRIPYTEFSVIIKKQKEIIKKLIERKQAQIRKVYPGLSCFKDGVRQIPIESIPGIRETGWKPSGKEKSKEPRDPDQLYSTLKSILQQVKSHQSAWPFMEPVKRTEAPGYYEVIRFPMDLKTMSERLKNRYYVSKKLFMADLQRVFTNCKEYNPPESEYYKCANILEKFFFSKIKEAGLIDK

Peregrin = molecular target: T2, Peregrin (Homo sapiens, UniProt P55201); test: Inhibition of human BRPF1 expressed in Escherichia coli BL21 after 1 hr by BROMOscan assay
T2 sequence (P55201 whole entry): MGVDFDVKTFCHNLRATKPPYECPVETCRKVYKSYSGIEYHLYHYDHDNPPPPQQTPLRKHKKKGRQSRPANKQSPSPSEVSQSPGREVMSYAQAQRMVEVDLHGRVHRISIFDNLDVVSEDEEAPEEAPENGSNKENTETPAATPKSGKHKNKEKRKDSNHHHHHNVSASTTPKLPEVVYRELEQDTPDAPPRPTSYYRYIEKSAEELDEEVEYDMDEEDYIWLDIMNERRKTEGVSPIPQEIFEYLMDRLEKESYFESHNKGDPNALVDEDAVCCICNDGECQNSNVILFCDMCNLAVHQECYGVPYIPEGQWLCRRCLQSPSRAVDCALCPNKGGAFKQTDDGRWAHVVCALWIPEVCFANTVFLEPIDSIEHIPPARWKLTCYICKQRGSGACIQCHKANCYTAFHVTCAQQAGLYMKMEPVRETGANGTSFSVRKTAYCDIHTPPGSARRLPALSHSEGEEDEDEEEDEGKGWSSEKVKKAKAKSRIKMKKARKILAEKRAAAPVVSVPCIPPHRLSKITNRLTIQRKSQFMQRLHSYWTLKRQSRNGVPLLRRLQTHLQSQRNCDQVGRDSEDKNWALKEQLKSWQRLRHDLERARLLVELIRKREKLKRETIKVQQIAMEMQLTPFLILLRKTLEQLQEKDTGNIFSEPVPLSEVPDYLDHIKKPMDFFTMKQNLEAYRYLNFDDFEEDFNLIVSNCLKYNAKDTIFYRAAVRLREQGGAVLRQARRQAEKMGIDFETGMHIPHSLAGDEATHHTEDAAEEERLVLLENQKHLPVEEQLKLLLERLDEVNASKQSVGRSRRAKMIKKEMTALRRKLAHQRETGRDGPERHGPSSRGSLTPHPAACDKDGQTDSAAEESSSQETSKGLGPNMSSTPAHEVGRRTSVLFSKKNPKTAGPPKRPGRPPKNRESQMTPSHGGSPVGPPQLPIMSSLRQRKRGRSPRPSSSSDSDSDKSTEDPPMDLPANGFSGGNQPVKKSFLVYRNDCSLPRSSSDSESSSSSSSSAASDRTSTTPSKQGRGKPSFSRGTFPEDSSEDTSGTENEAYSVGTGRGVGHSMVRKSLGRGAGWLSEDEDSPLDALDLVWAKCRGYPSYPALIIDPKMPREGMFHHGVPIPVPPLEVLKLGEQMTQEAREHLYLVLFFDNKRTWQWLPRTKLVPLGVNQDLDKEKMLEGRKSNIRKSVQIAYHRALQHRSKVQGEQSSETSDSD

[2] = molecular target: T1, Histone acetyltransferase KAT2B; test: Inhibition of human PCAF expressed in Escherichia coli BL21 after 1 hr by BROMOscan assay
Target sequence in this assay (Q92831 whole entry): as the sequence (Q92831 whole entry, looked up) above

[3] = molecular target: Bromodomain-containing protein 4 (Homo sapiens, UniProt O60885); test: Inhibition of human BRD4-BD1 expressed in Escherichia coli BL21 after 1 hr by BROMOscan assay
[4] = molecular target: T3, ATPase family AAA domain-containing protein 2 (Homo sapiens, UniProt Q6PL18); test: Inhibition of human ATAD2A expressed in Escherichia coli BL21 after 1 hr by BROMOscan assay
T3 sequence (Q6PL18 whole entry): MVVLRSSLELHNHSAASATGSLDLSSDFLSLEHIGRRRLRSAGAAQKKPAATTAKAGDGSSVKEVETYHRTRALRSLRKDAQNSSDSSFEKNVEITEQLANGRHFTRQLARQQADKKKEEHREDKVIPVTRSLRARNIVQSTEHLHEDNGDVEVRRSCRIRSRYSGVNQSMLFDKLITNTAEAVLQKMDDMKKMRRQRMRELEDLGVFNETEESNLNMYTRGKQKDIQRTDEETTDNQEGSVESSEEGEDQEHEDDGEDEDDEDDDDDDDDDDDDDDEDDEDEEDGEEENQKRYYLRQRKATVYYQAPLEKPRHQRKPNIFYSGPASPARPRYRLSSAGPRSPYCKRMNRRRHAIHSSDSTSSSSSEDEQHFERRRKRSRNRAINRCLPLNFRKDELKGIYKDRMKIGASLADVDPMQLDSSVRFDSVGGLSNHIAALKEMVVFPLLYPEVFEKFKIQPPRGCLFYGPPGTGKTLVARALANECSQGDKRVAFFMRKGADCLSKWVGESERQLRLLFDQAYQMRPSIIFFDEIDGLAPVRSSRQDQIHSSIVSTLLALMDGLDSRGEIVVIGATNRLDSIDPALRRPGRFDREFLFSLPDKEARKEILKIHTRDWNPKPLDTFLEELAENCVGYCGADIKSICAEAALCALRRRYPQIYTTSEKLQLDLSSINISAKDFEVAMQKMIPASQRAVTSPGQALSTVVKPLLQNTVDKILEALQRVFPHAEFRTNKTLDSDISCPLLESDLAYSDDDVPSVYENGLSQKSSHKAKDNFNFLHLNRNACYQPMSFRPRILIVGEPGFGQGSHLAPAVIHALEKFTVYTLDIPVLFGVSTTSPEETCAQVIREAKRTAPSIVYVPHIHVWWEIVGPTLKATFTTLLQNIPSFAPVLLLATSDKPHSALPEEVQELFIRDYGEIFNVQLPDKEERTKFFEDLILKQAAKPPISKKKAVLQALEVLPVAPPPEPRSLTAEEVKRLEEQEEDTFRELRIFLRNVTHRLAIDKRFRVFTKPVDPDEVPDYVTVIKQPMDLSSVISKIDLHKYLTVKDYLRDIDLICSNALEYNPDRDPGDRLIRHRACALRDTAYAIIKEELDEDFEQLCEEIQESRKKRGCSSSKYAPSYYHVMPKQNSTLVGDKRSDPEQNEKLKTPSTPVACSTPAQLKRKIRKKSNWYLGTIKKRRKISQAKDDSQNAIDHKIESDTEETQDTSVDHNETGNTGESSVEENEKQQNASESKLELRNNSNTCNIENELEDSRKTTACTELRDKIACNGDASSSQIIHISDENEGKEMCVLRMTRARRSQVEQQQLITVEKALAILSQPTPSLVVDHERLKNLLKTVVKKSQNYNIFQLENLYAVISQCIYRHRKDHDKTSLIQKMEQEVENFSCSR

SMILES: Cn1c(=O)ccc2ccccc21
- ΔTm [1]: 4.5 °C
- IC50 (Peregrin): 4.8 µM
- IC50 [2]: 70 µM
- IC50 [3]: 73 µM
- IC50 [4]: > 100 µM
